From patent publication US20120035206A1, “PREPARATION AND APPLICATION OF NOVEL ANTIBACTERIAL AND ANTICANCER COMPOUNDS AND THEIR DERIVATIVES” (priority 2009, published 2012)
Converted amounts (≈) assume the structure as drawn.

Columns and labels:
Type in all cases: cell-based
C. glabrata = assay: In vitro antibacterial (antifungal) test, two-fold dilution MIC; details: Nakaseomyces glabratus, RPMI 1640, culture 2-7 days
Description: (§1) In vitro antibacterial experiments of 25 compounds as anti-bacterial and anti-cancer compounds in the patent were tested using 14 kinds of bacteria. Tested bacteria: C. albicans, C. tropicalis, C. neoformans, E. floccosum, M. gypseum, A. niger, S. schenekn, C. parapsilosis, C. glabrata, C. Krusei, Trichoderma, Gibberella, Setrosphaeria turcica, Fusarium Oxysporum Vasinfectum. (Bacteria were from the Dermatology Hospital of Chinese Academy of Medical Sciences, Nanjing, China.)
(§2) The Preparation of tested Bacteria solution was following: incubated Bacteria were added to 5 ml physiological saline, and then they were mashed and placed with ultrasound. The solution was fully mixed, and insoluble substances were removed. The treated solution was called the original bacterium solution. In the test, the bacteria concentration in the original bacterium solution was adjusted to […].
(§3) Tested Methods: the tested compounds were dissolved in dimethyl sulfoxide. and the solution was diluted with sterile distilled water. And the distilled solution was added to sterilized RPMI 1640 medium. The concentration of the compounds were adjusted to 256, 128, 64, 32, 16, 8, 4, 2, 1, 0.5, 0.25, 0.125 ug*ml-1. Then the adjusted solutions were inoculated with tested bacteria, and the tested systems were placed in the constant temperature oven to culture for 2-7 days. The concentration at which there was no growing of fungi was taken as the minimum inhibitory concentration (MIC).

M. gypseum = assay: as above; details: Nannizzia gypsea, RPMI 1640, culture 2-7 days
Description: as §1, §2, §3

[1] = tested on: Fusarium oxysporum vasinfectum; assay: as above; details: RPMI 1640, culture 2-7 days
Description: as §1, §2, §3

C. tropicalis = assay: as above; details: Candida tropicalis, RPMI 1640, culture 2-7 days
Description: as §1, §2, §3

C. Krusei = assay: as above; details: Pichia kudriavzevii, RPMI 1640, culture 2-7 days
Description: as §1, §2, §3

C. parapsilosis = assay: as above; details: Lodderomyces parapsilosis, RPMI 1640, culture 2-7 days
Description: as §1, §2, §3

S. schenekn = assay: as above; details: RPMI 1640, culture 2-7 days
Description: as §1, §2, §3

C. albicans = assay: as above; details: Candida albicans, read-out: MIC C. albicas
Description: as §1, §2, §3

Setosphaeria turcica = assay: as above; details: Exserohilum turcicum, RPMI 1640, culture 2-7 days
Description: as §1, §2, §3

gibberella = assay: as above; details: RPMI 1640, culture 2-7 days
Description: as §1, §2, §3

Terchoderma = assay: as above; details: Trichoderma, RPMI 1640, culture 2-7 days
Description: as §1, §2, §3

C. neoformans = assay: as above; details: Cryptococcus neoformans, RPMI 1640, culture 2-7 days
Description: as §1, §2, §3

HTB-95637 = assay: In vitro anticancer MTT experiment; details: concentration 5 ug/ml, 48 h or 72 h, read-out: inhibition ratio HTB-95637
Description: (§4) In vitro anticancer experiments of 25 compounds as anti-bacterial and anti-cancer compounds in the patent were tested. In the test, 14 kinds of cancer cells were used as tested cancer cells. And the results obtained by MTT method were shown in table 2 (the inhibition ratio was obtained when the concentration was 5 ug/ml). Tested Cancer Cells: SGC7901, HTB-38HT-29, CRL-2233NU-398, CRL-1469PANC-1, B0192, HTB-131MDA-453, CRL-1435PC-3, FTC133, AS24391, HTB-95637. (Cancer cells were from Chinese Military Academy of Medical Sciences). Cells Culture: Culture solution was composed of RPMI 1640 medium, 10% (VAT) Fetal calf serum and 0.01% L-glutamine. Cultured cells were maintained at 37° C. in an incubator with 5% CO2. The cells at logarithmic growth phase were used in the experiment. MTT Experiment: Single cell suspension was obtained by digesting cells with 0.25% trypsin. The cells at logarithmic growth phase were collected and seeded in a 96-well plate at a concentration of 6000-7000 cells per well. After culturing for 12 h at 37° C. in the incubator with 5% CO2, the cells were again incubated with the tested compounds of various concentrations for 48 h or 72 h. Pure cultures and cells without drug were taken as blank reference and negative reference, and 8 Wells of each group were taken. Twenty microliter of MTT (5 mg/mL) was added to each well, and the mixed solutions were incubation for 4 h. The formazan product was dissolved by dimethyl sulfoxide (DMSO, 150 μL), and the optical density (O.D.) was read at 570 nm. The Inhibition Ratio was calculated by the following formula: Inhibition Ratio=(Anegative control−Asample)/(Anegative control−Ablank control)

SGC7901 = assay: In vitro anticancer MTT experiment; details: Homo sapiens, SGC-7901, concentration 5 ug/ml, 48 h or 72 h, read-out: inhibition ratio SGC7901
Description: as §4

CRL-2233SNU-398 = assay: In vitro anticancer MTT experiment; details: concentration 5 ug/ml, 48 h or 72 h, read-out: inhibition ratio CRL-2233SNU-398
Description: as §4

CRL-1469PANC-1 = assay: In vitro anticancer MTT experiment; details: concentration 5 ug/ml, 48 h or 72 h, read-out: inhibition ratio CRL-1469PANC-1
Description: as §4

L1210 = assay: In vitro anticancer MTT experiment; details: Mus musculus, concentration 5 ug/ml, 48 h or 72 h, read-out: inhibition ratio L1210
Description: as §4

AS24391 = assay: In vitro anticancer MTT experiment; details: concentration 5 ug/ml, 48 h or 72 h, read-out: inhibition ratio AS24391
Description: as §4

FTC 133 = assay: In vitro anticancer MTT experiment; details: Homo sapiens, concentration 5 ug/ml, 48 h or 72 h, read-out: inhibition ratio FTC 133
Description: as §4

CRL-1435PC-3 = assay: In vitro anticancer MTT experiment; details: concentration 5 ug/ml, 48 h or 72 h, read-out: inhibition ratio CRL-1435PC-3
Description: as §4

L428 = assay: In vitro anticancer MTT experiment; details: Homo sapiens, L-428, concentration 5 ug/ml, 48 h or 72 h, read-out: inhibition ratio L428
Description: as §4

B01092 = assay: In vitro anticancer MTT experiment; details: concentration 5 ug/ml, 48 h or 72 h, read-out: inhibition ratio B01092
Description: as §4

A375 = assay: In vitro anticancer MTT experiment; details: Homo sapiens, A-375, concentration 5 ug/ml, 48 h or 72 h, read-out: inhibition ratio A375
Description: as §4

E. floccosum = assay: In vitro antibacterial (antifungal) test, two-fold dilution MIC; details: Epidermophyton floccosum, RPMI 1640, culture 2-7 days
Description: as §1, §2, §3

HTB-94 = assay: In vitro anticancer MTT experiment; details: concentration 5 ug/ml, 48 h or 72 h, read-out: inhibition ratio HTB-94
Description: as §4

HTB-131MDA-MB-453 = assay: In vitro anticancer MTT experiment; details: concentration 5 ug/ml, 48 h or 72 h, read-out: inhibition ratio HTB-131MDA-MB-453
Description: as §4

HTB-38HT-29 = assay: In vitro anticancer MTT experiment; details: concentration 5 ug/ml, 48 h or 72 h, read-out: inhibition ratio HTB-38HT-29
Description: as §4

SMILES	MIC (C. glabrata) [µg/mL]	MIC (M. gypseum) [µg/mL]	MIC [1] [µg/mL]	MIC (C. parapsilosis) [µg/mL]	MIC (S. schenekn) [µg/mL]	MIC (gibberella) [µg/mL]	MIC (Terchoderma) [µg/mL]	MIC (C. neoformans) [µg/mL]	inhibition at 5 µg/mL (SGC7901) [%]	inhibition at 5 µg/mL (CRL-2233SNU-398) [%]	inhibition at 5 µg/mL (CRL-1469PANC-1) [%]	inhibition at 5 µg/mL (L1210) [%]	inhibition at 5 µg/mL (AS24391) [%]	inhibition at 5 µg/mL (FTC 133) [%]	inhibition at 5 µg/mL (L428) [%]	inhibition at 5 µg/mL (B01092) [%]	inhibition at 5 µg/mL (A375) [%]	MIC (E. floccosum) [µg/mL]	inhibition at 5 µg/mL (HTB-94) [%]	inhibition at 5 µg/mL (HTB-38HT-29) [%]	further results
Cc1ccc2c(c1)C(=O)/C(=C/Cl)CS2 [Compound 5, (Z)-3-(chloromethylene)-6-methylthiochroman-4-one]	2 (≈ 8.9 µM)	4 (≈ 17.8 µM)	8 (≈ 35.6 µM)	8 (≈ 35.6 µM)	8 (≈ 35.6 µM)	16 (≈ 71.2 µM)	32 (≈ 142 µM)	0.5 (≈ 2.23 µM)	62.1	60.1	40.9	87.6	49.8	60.2	46.8	58	65.9	–	–	–	MIC (C. tropicalis): 32 µg/mL (≈ 142 µM); MIC (C. Krusei): 4 µg/mL (≈ 17.8 µM); MIC (C. albicans): 8 µg/mL (≈ 35.6 µM); MIC (Setosphaeria turcica): 8 µg/mL (≈ 35.6 µM); inhibition at 5 µg/mL (HTB-95637): 76.6%; inhibition at 5 µg/mL (CRL-1435PC-3): 55.6%
O=C1/C(=C/Cl)SCc2ccc(F)cc21 [Compound 15, (Z)-3-(chloromethylene)-6-fluoroisothiochroman-4-one]	4 (≈ 17.5 µM)	4 (≈ 17.5 µM)	8 (≈ 35 µM)	16 (≈ 70 µM)	32 (≈ 140 µM)	16 (≈ 70 µM)	32 (≈ 140 µM)	32 (≈ 140 µM)	47.6	45	36.8	80.9	46.8	45.9	55.4	49.5	60.2	8 (≈ 35 µM)	60.5	57	MIC (C. tropicalis): 4 µg/mL (≈ 17.5 µM); MIC (C. Krusei): 32 µg/mL (≈ 140 µM); MIC (C. albicans): 8 µg/mL (≈ 35 µM); MIC (Setosphaeria turcica): 16 µg/mL (≈ 70 µM); inhibition at 5 µg/mL (HTB-131MDA-MB-453): 58%
Cc1cc2c(cc1F)CS/C(=C\Br)C2=O [Compound 16, (Z)-3-(bromomethylene)-7-fluoro-6-methylisothiochroman-4-one]	4 (≈ 13.9 µM)	16 (≈ 55.7 µM)	16 (≈ 55.7 µM)	4 (≈ 13.9 µM)	8 (≈ 27.9 µM)	32 (≈ 111 µM)	16 (≈ 55.7 µM)	4 (≈ 13.9 µM)	56.7	–	57.9	85.9	57.8	46.5	43.1	60.4	30.5	16 (≈ 55.7 µM)	63.2	48	MIC (C. tropicalis): 32 µg/mL (≈ 111 µM); MIC (C. Krusei): 32 µg/mL (≈ 111 µM); MIC (C. albicans): 32 µg/mL (≈ 111 µM); MIC (Setosphaeria turcica): 32 µg/mL (≈ 111 µM); inhibition at 5 µg/mL (HTB-95637): 36%; inhibition at 5 µg/mL (HTB-131MDA-MB-453): 46.3%; inhibition at 5 µg/mL (CRL-1435PC-3): 56.9%
Cc1ccc(S/C=C2/CSc3ccc(F)cc3C2=O)cc1F [Compound 23, (E)-6-fluoro-3-(((3-fluoro-4-methylphenyl)thio)methylene)thiochroman-4-one]	64 (≈ 191 µM)	–	–	–	64 (≈ 191 µM)	16 (≈ 47.8 µM)	–	16 (≈ 47.8 µM)	–	53.3	34.2	37.6	44.5	42.4	59.5	39	49.2	64 (≈ 191 µM)	47.9	56.1	inhibition at 5 µg/mL (HTB-95637): 50.6%; inhibition at 5 µg/mL (HTB-131MDA-MB-453): 53.5%; inhibition at 5 µg/mL (CRL-1435PC-3): 43.9%
O=C1/C(=C\Cl)CSc2sccc21 [Compound 24, (E)-5-(chloromethylene)-5,6-dihydro-4H-thieno[2,3-b]thiopyran-4-one]	16 (≈ 73.8 µM)	8 (≈ 36.9 µM)	16 (≈ 73.8 µM)	4 (≈ 18.5 µM)	32 (≈ 148 µM)	4 (≈ 18.5 µM)	16 (≈ 73.8 µM)	16 (≈ 73.8 µM)	33.9	45.6	–	85.4	37	45.8	47.7	56.8	32.5	16 (≈ 73.8 µM)	51.3	43.4	MIC (C. tropicalis): 8 µg/mL (≈ 36.9 µM); MIC (C. Krusei): 32 µg/mL (≈ 148 µM); MIC (C. albicans): 16 µg/mL (≈ 73.8 µM); MIC (Setosphaeria turcica): 16 µg/mL (≈ 73.8 µM); inhibition at 5 µg/mL (HTB-131MDA-MB-453): 47.6%; inhibition at 5 µg/mL (CRL-1435PC-3): 39.4%
Cc1ccc(SC2/C(=C/Cl)CSc3ccc(C)cc32)cc1 (centres unmarked) [Compound 29, (E)-3-(chloromethylene)-6-methyl-4-(p-tolylthio)thiochroman]	–	64 (≈ 192 µM)	–	32 (≈ 96.1 µM)	32 (≈ 96.1 µM)	16 (≈ 48.1 µM)	64 (≈ 192 µM)	–	23.3	21.5	17.4	33.6	15.2	32.2	13.2	26.5	30.2	64 (≈ 192 µM)	23.4	19.2	–
